This note sets out measurements from patent US5234934A, “Aminopropanol derivatives, process for their preparation and pharmaceutical compositions comprising the same” (priority 1989, dated 1993).

System in one data set: not listed separately
The data set can be described thus: acute toxicity test in mice (Litchfield and Wilcoxon). The conditions noted are these: mouse, in vivo, po., 14 days observation. Format: in vivo, mouse. As for the experimental part:
The test for acute toxicity was carried out by using 10 white mice (CFLP strain) (both male and female), weighing 18 to 22 g in each dose group. The compounds of the invention were administered orally in a dose of 20 ml/kg.
The animals were kept in a plastic box on wood chips in a room of room temperature. They could consume tap water and standard mouse feed ad libitum. The toxicity data were determined by the method of Litchfield and Wilcoxon (Litchfield, J. T., Wilcoxon, F. W.: J. Pharmacol. Exp. Ther. 96, 99/1949/).
`CC(C)(C)NCC(O)CO/N=C1\CCCC\C1=C/c1ccc(Cl)cc1` (racemic) [Example 31, R,S-2-(E)-(4-Chlorophenyl-methylene)-1-(E)-[3-(1,1-dimethylethylamino)-2'-hydroxy-propoxyimino]-cyclohexane] yielded an LD50 at 336 h of roughly 1000 mg/kg.

With `O=C(OC(CO/N=C1\CCCCCC\C1=C/c1ccccc1)CN1CCOCC1)c1ccccc1` (racemic) [Example 69, R,S-2-(E)-Phenylmethylene-1-(E)-[3'-(4-morpholinyl)-2'-benzoyloxy-propoxyimino]-cyclooctane], the 50% lethal dose (LD50) at 336 h was greater than 1000 mg/kg. On to `CCCCNCC(O)CO/N=C1\CCCCCC\C1=C/c1ccccc1` (racemic) [Example 49, R,S-2-(E)-Phenylmethylene-1-(E)-(3-butylamino-2-hydroxypropoxyimino)-cyclooctane], for which the LD50 at 336 h is greater than 1000 mg/kg. Same read-out and setting: with `CN1CCN(CC(O)CO/N=C2\CCCCC\C2=C/c2ccccc2)CC1` (racemic) [Example 17, R,S-2-(E)-Phenylmethylene-1-(E)-[3-(4-methyl-1-piperazinyl)-2-hydroxy-propoxyimino]-cycloheptane] the figure was greater than 1000 mg/kg; with `OC(CO/N=C1\CCCC\C1=C/c1ccccc1)CN1CCCC1` (racemic) [Example 8, R,S-2-(E)-Phenylmethylene-1-(E)-(3-pyrrolidinyl-2-hydroxy-propoxyimino)-cyclohexane], 800 mg/kg. `CCCCCCNCC(O)CO/N=C1\CCCC\C1=C/c1ccccc1` (racemic) [Example 3, R,S-2-(E)-Phenylmethylene-1-(E)-(3-hexylamino-2-hydroxy-propoxyimino)-cyclohexane] came in with an LD50 at 336 h greater than 1000 mg/kg. The same measure, in the same setting: in the case of `COc1ccc(/C=C2\CCCCC\C2=N/OCC(O)CNC(C)C)cc1` (racemic) [Example 50, R,S-2-(E)-(4-Methoxyphenyl-methylene)-1-(E)-/3-(1-methylethylamino)-2-hydroxy-propoxyimino/-cycloheptane] it was 1000 mg/kg. Same read-out and setting: with `CC(C)(C)NCC(O)CO/N=C1\CCC\C1=C/c1ccccc1` (racemic) [Example 22, R,S-2-(E)-Phenylmethylene-1-(E)-[3-(1,1-dimethylethylamino)-2-hydroxy-propoxyimino]-cyclopentane] the figure was 900 mg/kg; with `COc1cccc(/C=C2\CCCC\C2=N/OCC(O)CN2CCN(Cc3ccccc3)CC2)c1` (racemic) [Example 39, R,S-2-(E)-(3-Methoxyphenyl-methylene)-1-(E)-{3-[(4-phenylmethyl)-1-piperazinyl]-2-hydroxy-propoxyimino}-cyclohexane], greater than 1000 mg/kg; with `OC(CO/N=C1\CCCC\C1=C/c1ccccc1)CN1CCN(c2cccc(Cl)c2)CC1` (racemic) [Example 52, R,S-2-(E)-Phenylmethylene-1-(E)-{3-[4-(3-chlorophenyl)-1-piperazinyl]-2-hydroxy-propoxyimino}-cyclohexane], greater than 1000 mg/kg. Same read-out and setting: in the case of `C#CC(C)(C)NCC(O)CO/N=C1\CCCCC\C1=C/c1ccccc1` (racemic) [Example 16, R,S-2-(E)-Phenylmethylene-1-(E)-[3-(1,1-dimethylpropin-2-yl)amino-2-hydroxy-propoxyimino]-cycloheptane] it was greater than 1000 mg/kg; in that of `OC(CO/N=C1\CCCC\C1=C/c1ccccc1)CN1CCN(c2cccc(C(F)(F)F)c2)CC1` (racemic) [Example 53, R,S-2-(E)-Phenylmethylene-1-(E)-3-[4-(3-trifluoromethyl)-phenyl-1-piperazinyl]-2-hydroxy-propoxyimino-cyclohexane], greater than 1000 mg/kg.

Another data set deals with hexobarbital narcosis. Kind of data set: narcosis potentiating effect (hexobarbital sleeping time). To be noted: Mus musculus, po, read-out: ED50 (narcosis potentiation).
Protocol: The narcosis potentiating effect of the compounds of the invention were examined on white mice, with 6 animals in each group. The mice were administered orally with the compounds of the invention, then both the control and the test groups were intravenously added 40 mg/kg of hexobarbital in order to make the mice sleep (Kaergard et al.).
Regarding `CNC1=Nc2ccc(Cl)cc2C(c2ccccc2)=[N+]([O-])C1` [Chlordiazepoxide, reference compound], the 50% effective dose (ED50) is 10 mg/kg. In the case of `CCCC(C)(COC(N)=O)COC(N)=O` [Meprobamate, reference compound], the ED50 came out at 260 mg/kg.

The same data set, now with this note: narcosis potentiation, mice, po.
Take `CNC1=Nc2ccc(Cl)cc2C(c2ccccc2)=[N+]([O-])C1` [Chlordiazepoxide, reference compound]: the “TI (therapeutic index)” value is 62. For `CCCC(C)(COC(N)=O)COC(N)=O` [Meprobamate, reference compound], the “TI (therapeutic index)” value was 4.2.

As usually defined, the LD50 is the dose expected to kill half of the subjects tested. A lower LD50 goes with greater toxicity. A word on the ED50: it is the dose at which the effect has come halfway, by size or by number of responders.
